Test results reported in patent US6376497B1, “Antifungal azole derivatives having a fluorinated vinyl group and process for preparing same” (Korea Research Institute of Chemical Technology, priority 1999, dated 2002).
Values after ≈ are worked out from the molar mass of the structure shown.

Legend:
Assay in all cases: In vitro antifungal activity, microbroth dilution MIC
Assay type in all cases: cell-based
[1] = system: Candida tropicalis A. 13803; settings: 4 to 48 hours; for Minimal inhibitory concentration (MIC): C. tropicalis A. 13803, RPMI-1640, 35° C.
Method in brief: (§1)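 Broth microdilution adapted from NCCLS M27, in RPMI-1640 with 0.165 M MOPS, pH 7.0. Yeast or mould inoculum at 2×10^3 CFU/ml was mixed 1:1 with DMSO-derived compound solutions (200 to 0.10 μg/ml before mixing) and incubated at 35 °C for 4 to 48 h. MIC was the concentration showing no growth.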

[2] = system: Aspergillus niger A. 16404; settings: 4 to 48 hours; for Minimal inhibitory concentration (MIC): A. niger A. 16404, RPMI-1640, 35° C.
Method in brief: as §1

[3] = system: Trichophyton mentagrophytes A. 9129; settings: 4 to 48 hours; for Minimal inhibitory concentration (MIC): T. mentagrophytes A. 9129, RPMI-1640, 35° C.
Method in brief: as §1

[4] = system: Aspergillus furnigatus B. 19119; settings: 4 to 48 hours; for Minimal inhibitory concentration (MIC): A furnigatus B. 19119, RPMI-1640, 35° C.
Method in brief: as §1

[5] = system: Candida parapsitosis A. 7330; settings: 4 to 48 hours; for Minimal inhibitory concentration (MIC): C. parapsitosis A. 7330, RPMI-1640, 35° C.
Method in brief: as §1

[6] = system: Candida krusei K. 11655; settings: 4 to 48 hours; for Minimal inhibitory concentration (MIC): C. krusei K. 11655, RPMI-1640, 35° C.
Method in brief: as §1

[7] = system: Cryptococcus neoformans IFM. 40092; settings: 4 to 48 hours; for Minimal inhibitory concentration (MIC): Cry. neoformans IFM. 40092, RPMI-1640, 35° C.
Method in brief: as §1

[8] = system: Cryptococcus neoformans B. 42419; settings: 4 to 48 hours; for Minimal inhibitory concentration (MIC): Cry. neoformans B. 42419, RPMI-1640, 35° C.
Method in brief: as §1

[9] = system: Torulopsis glabrata B. 16205; settings: 4 to 48 hours; for Minimal inhibitory concentration (MIC): T. glabrata B. 16205, RPMI-1640, 35° C.
Method in brief: as §1

[10] = system: Candida pseudotropicalis K. 11658; settings: 4 to 48 hours; for Minimal inhibitory concentration (MIC): C. pseudotropicalis K. 11658, RPMI-1640, 35° C.
Method in brief: as §1

[11] = system: Cryptococcus neoformans A. 34144; settings: 4 to 48 hours; for Minimal inhibitory concentration (MIC): Cry. neoformans A. 34144, RPMI-1640, 35° C.
Method in brief: as §1

[12] = system: Candida albicans IFO. 1385; settings: 4 to 48 hours; for Minimal inhibitory concentration (MIC): C. albicans IFO. 1385, RPMI-1640, 35° C.
Method in brief: as §1

[13] = system: Candida albicans A. 10231; settings: 4 to 48 hours; for Minimal inhibitory concentration (MIC): C. albicans A. 10231, RPMI-1640, 35° C.
Method in brief: as §1

[14] = system: Trichophyton mentagrophytes B. 32663; settings: 4 to 48 hours; for Minimal inhibitory concentration (MIC): T. mentagrophytes B. 32663, RPMI-1640, 35° C.
Method in brief: as §1

[15] = system: Candida albicans C1-2; settings: 4 to 48 hours; for Minimal inhibitory concentration (MIC): C. albicans C1-2, RPMI-1640, 35° C.
Method in brief: as §1

[16] = RPMI-1640, 35° C., no growth observed

Row | Compound | Minimal inhibitory concentration (MIC) [1] | Minimal inhibitory concentration (MIC) [2] | Minimal inhibitory concentration (MIC) [3] | Minimal inhibitory concentration (MIC) [4] | Minimal inhibitory concentration (MIC) [5] | Minimal inhibitory concentration (MIC) [6] | Minimal inhibitory concentration (MIC) [7] | Minimal inhibitory concentration (MIC) [8] | Minimal inhibitory concentration (MIC) [9] | Minimal inhibitory concentration (MIC) [10] | Minimal inhibitory concentration (MIC) [11] | Minimal inhibitory concentration (MIC) [12] | Minimal inhibitory concentration (MIC) [13] | Minimal inhibitory concentration (MIC) [14] | Minimal inhibitory concentration (MIC) [15] | also measured
1 | FC(OCC1COC(Cn2ccnc2)(c2ccc(Cl)cc2Cl)O1)=C(c1ccc(C(F)(F)F)cc1)C(F)(F)F (stereo not drawn) [Ex. 25] | 50.0 µg/mL (≈ 85.4 µM) | 100 µg/mL (≈ 171 µM) | 25.0 µg/mL (≈ 42.7 µM) | 100 µg/mL (≈ 171 µM) | >100 µg/mL | 100 µg/mL (≈ 171 µM) | 0.78 µg/mL (≈ 1.33 µM) | 1.56 µg/mL (≈ 2.67 µM) | 25.0 µg/mL (≈ 42.7 µM) | 100 µg/mL (≈ 171 µM) | 1.56 µg/mL (≈ 2.67 µM) | 1.56 µg/mL (≈ 2.67 µM) | 6.25 µg/mL (≈ 10.7 µM) | 12.5 µg/mL (≈ 21.4 µM) | 12.5 µg/mL (≈ 21.4 µM) | 
2 | FC(=C(c1ccccc1)C(F)(F)F)N1CCN(c2ccc(OCC3COC(Cn4ccnc4)(c4ccc(F)cc4F)O3)cc2)CC1 (mixture of isomers) [Ex. 138] |  |  |  |  |  |  |  |  |  |  |  |  |  |  |  | Minimal inhibitory concentration(MIC), C. tropicalis A. 13803 [1, 16]: >100 µg/mL; Minimal inhibitory concentration(MIC), A. niger A. 16404 [2, 16]: 100 µg/mL; Minimal inhibitory concentration(MIC), T. mentagrophytes A. 9129 [3, 16]: 3.13 µg/mL; Minimal inhibitory concentration(MIC), A furnigatus B. 19119 [4, 16]: 12.5 µg/mL; Minimal inhibitory concentration(MIC), C. parapsitosis A. 7330 [5, 16]: 0.78 µg/mL; Minimal inhibitory concentration(MIC), C. krusei K. 11655 [6, 16]: 1.56 µg/mL; Minimal inhibitory concentration(MIC), Cry. neoformans IFM. 40092 [7, 16]: ≦0.10 μg/ml; Minimal inhibitory concentration(MIC), Cry. neoformans B. 42419 [8, 16]: 0.78 µg/mL; Minimal inhibitory concentration(MIC), T. glabrata B. 16205 [9, 16]: 100 µg/mL; Minimal inhibitory concentration(MIC), C. pseudotropicalis K. 11658 [10, 16]: 1.56 µg/mL; Minimal inhibitory concentration(MIC), Cry. neoformans A. 34144 [11, 16]: 0.78 µg/mL; Minimal inhibitory concentration(MIC), C. albicans IFO. 1385 [12, 16]: 0.78 µg/mL; Minimal inhibitory concentration(MIC), C. albicans A. 10231 [13, 16]: >100 µg/mL; Minimal inhibitory concentration(MIC), T. mentagrophytes B. 32663 [14, 16]: ≦0.10 μg/ml; Minimal inhibitory concentration(MIC), C. albicans C1-2 [15, 16]: >100 µg/mL
3 | FC(OCC1COC(Cn2ccnc2)(c2ccc(F)cc2F)O1)=C(c1ccccc1)C(F)(F)F (mixture of isomers) [Ex. 52] | 50.0 µg/mL | 6.25 µg/mL | 1.56 µg/mL | 1.56 µg/mL | >100 µg/mL | 100 µg/mL | ≦0.10 μg/ml | 0.78 µg/mL | 3.13 µg/mL | 50.0 µg/mL | 0.78 µg/mL | 0.39 µg/mL | 12.5 µg/mL | 0.78 µg/mL | 12.5 µg/mL | 
4 | FC(OCC1COC(Cn2ccnc2)(c2ccc(F)cc2F)O1)=C(c1cccc(F)c1)C(F)(F)F (mixture of isomers) [Ex. 65] | 50.0 µg/mL | 12.5 µg/mL | 3.13 µg/mL | 3.13 µg/mL | >100 µg/mL | 100 µg/mL | ≦0.10 μg/ml | 1.56 µg/mL | 6.25 µg/mL | 25.0 µg/mL | 1.56 µg/mL | 0.78 µg/mL | 12.5 µg/mL | 1.53 µg/mL | 12.5 µg/mL | 
